Source: US12215100B2, “Anticancer compounds” (Pharma Mar, S.A., priority 2018, dated 2025)
pIC50: −log10 of the molar value.

Tests used:
HepG2 = conditions: liver cancer cell line; WO2002066046; cited from earlier work
SK-HEP-1 = conditions: liver cancer cell line; WO2002066046; cited from earlier work
SNU-638 = conditions: gastric cancer cell line; WO2002066046; cited from earlier work
Hep3B = conditions: liver cancer cell line; WO2002066046; cited from earlier work
AGS = conditions: gastric cancer cell line; WO2002066046; cited from earlier work
SNU-216 = conditions: gastric cancer cell line; WO2002066046; cited from earlier work
A549 = assay: SRB colorimetric cytotoxicity assay, A549; type: cell-based, human; conditions: Homo sapiens, lung carcinoma (NSCLC)
Excerpt: (§1) The aim of this assay is to evaluate the in vitro cytostatic (ability to delay or arrest tumor cell growth) or cytotoxic (ability to kill tumor cells) activity of the samples being tested.
(§2) A colorimetric assay, using sulforhodamine B (SRB) reaction has been adapted to provide a quantitative measurement of cell growth and viability (following the technique described by V. Vichai and K. Kirtikara (2006) Nature Protoc. 1, 1112-1116.)
(§3) This form of assay employs 96-well cell culture microplates. All the cell lines used in this study were obtained from the American Type Culture Collection (ATCC), unless otherwise indicated, and derive from different types of human cancer.
(§4) Cells were maintained in Dulbecco's Modified Eagle Medium (DMEM) (for A549, HT-29 and MDA-MB-231) or RPMI (for PSN-1) supplemented with 10% Fetal Bovine Serum (FBS), 2 mM L-glutamine, 100 U/mL penicillin and 100 U/mL streptomycin at 37° C., 5% CO2 and 98% humidity. For the experiments, cells were harvested from subconfluent cultures using trypsinization and resuspended in fresh medium before counting and plating.
(§5) Cells were seeded in 96 well microtiter plates, at 5×10^3 cells per well in aliquots of 150 μL, and allowed to attach to the plate surface for 18 hours (overnight) in drug free medium. After that, one control (untreated) plate of each cell line was fixed (as described below) and used for time zero reference value. […] After 72 hours treatment, the antitumor effect was measured by using the SRB methodology: Briefly, cells were washed twice with PBS, fixed for 15 min in 1% glutaraldehyde solution at room temperature, rinsed twice in PBS, and stained in 0.4% SRB solution for 30 min at room temperature. Cells were then rinsed several times with 1% acetic acid solution and air-dried at room temperature. SRB was then extracted in 10 mM trizma base solution and the absorbance measured in an automated spectrophotometric plate reader at 490 nm. Effects on cell growth and survival were estimated by applying the NCI algorithm (Boyd M R and Pauli K D. Drug Dev Res. 1995, 34, 91-104).
(§6) Using the mean±SD of triplicates, a dose-response curve was automatically generated using nonlinear regression analysis to a 4-parameter logistic curve. Three reference parameters were calculated (NCI algorithm) by automatic interpolation: GI50=compound concentration that produces 50% cell growth inhibition, as compared to control cultures; TGI=total cell growth inhibition (cytostatic effect), as compared to control cultures, and LC50=compound concentration that produces 50% net cell killing (cytotoxic effect).

HT29 = assay: SRB colorimetric cytotoxicity assay, HT29; type: cell-based, human; conditions: Homo sapiens, colorectal adenocarcinoma
Excerpt: as §1, §2, §3, §4, §5, §6

MDA-MB-231 = assay: SRB colorimetric cytotoxicity assay, MDA-MB-231; type: cell-based, human; conditions: Homo sapiens, breast adenocarcinoma
Excerpt: as §1, §2, §3, §4, §5, §6

PSN-1 = assay: SRB colorimetric cytotoxicity assay, PSN-1; type: cell-based, human; conditions: Homo sapiens, pancreatic adenocarcinoma
Excerpt: as §1, §2, §3, §4, §5, §6

[1] = HT-29, 72 h, 72 hours treatment
[2] = MDA-MB-231, 72 h, 72 hours treatment

## COC1=CC(=O)N(C(=O)[C@H]2CSC([C@H](CO)NC(=O)c3csc(/C=N/O)n3)=N2)C1 [althiomycin]
HepG2
  pIC50: 5.84
SK-HEP-1
  pIC50: 6.09
SNU-638
  pIC50: 6.11
Hep3B
  pIC50: 6.06
AGS
  pIC50: 6.07
SNU-216
  pIC50: 6.11

## CCCCCCCOc1cc([C@@H](CCC)NC(=O)[C@]2(C)CSC(C(C)=O)=N2)oc(=O)c1 [Compound 61]
A549; A549, 72 h, 72 hours treatment
  GI50: 1840 nM
HT29; [1]
  GI50: 1400 nM
MDA-MB-231; [2]
  GI50: 1440 nM
PSN-1; PSN1, 72 h, 72 hours treatment
  GI50: 1730 nM

## C=CCOc1cc([C@@H](CCC)NC(=O)[C@]2(C)CSC(/C(C)=N/OC(=O)COCCOCCOC)=N2)oc(=O)c1 [Compound 164]
A549; A549, 72 h, 72 hours treatment
  GI50: 6.52 nM
HT29; [1]
  GI50: 4.58 nM
MDA-MB-231; [2]
  GI50: 7.22 nM
PSN-1; PSN1, 72 h, 72 hours treatment
  GI50: 6.52 nM

## C#CCOc1cc([C@@H](CCC)NC(=O)[C@]2(C)CSC(/C(C)=N/OCCCNC(=O)OC(C)(C)C)=N2)oc(=O)c1 [Compound 155]
A549; A549, 72 h, 72 hours treatment
  GI50: 37.4 nM
HT29; [1]
  GI50: 40.9 nM
MDA-MB-231; [2]
  GI50: 74.8 nM
PSN-1; PSN1, 72 h, 72 hours treatment
  GI50: 73 nM

## C=Cc1cc([C@@H](CCC)NC(=O)[C@]2(C)CSC(C(C)=O)=N2)oc(=O)c1 [Compound 68]
A549; A549, 72 h, 72 hours treatment
  GI50: 11000 nM
HT29; [1]
  GI50: 9100 nM
MDA-MB-231; [2]
  GI50: 6620 nM
PSN-1; PSN1, 72 h, 72 hours treatment
  GI50: 4690 nM

## CCC[C@@H](NC(=O)[C@]1(C)CSC(/C(C)=N/O)=N1)c1cc(OCCOCCOCCOCC)cc(=O)o1 [Compound 87]
A549; A549, 72 h, 72 hours treatment
  GI50: 5690 nM
HT29; [1]
  GI50: 5500 nM
MDA-MB-231; [2]
  GI50: 6820 nM
PSN-1; PSN1, 72 h, 72 hours treatment
  GI50: 7010 nM

## C=CCOc1cc([C@@H](CCC)NC(=O)[C@]2(C)CSC(/C(C)=N/OCCCN)=N2)oc(=O)c1 (stereo in doubt) [Compound 153]
A549; A549, 72 h, 72 hours treatment
  GI50: 3.98 nM
HT29; [1]
  GI50: 3.38 nM
MDA-MB-231; [2]
  GI50: 4.32 nM
PSN-1; PSN1, 72 h, 72 hours treatment
  GI50: 3.98 nM

## C=CCOc1cc([C@@H](CCC)NC(=O)[C@]2(C)CSC(/C(C)=N/O[C@H]3O[C@@H]4COC(C)(C)O[C@H]4[C@@H]4OC(C)(C)O[C@H]34)=N2)oc(=O)c1 [Compound 110]
A549; A549, 72 h, 72 hours treatment
  GI50: 43.1 nM
HT29; [1]
  GI50: 36.9 nM
MDA-MB-231; [2]
  GI50: 78.5 nM
PSN-1; PSN1, 72 h, 72 hours treatment
  GI50: 56.9 nM

## CCC[C@@H](NC(=O)[C@]1(C)CSC(/C(C)=N\O)=N1)c1cc(OC)cc(=O)o1 [Compound 1a]
A549; A549, 72 h, 72 hours treatment
  GI50: 144 nM
HT29; [1]
  GI50: 152 nM
MDA-MB-231; [2]
  GI50: 204 nM
PSN-1; PSN1, 72 h, 72 hours treatment
  GI50: 341 nM

## CCC[C@@H](NC(=O)[C@@H]1CSC(/C(C)=N/O)=N1)c1cc(OC)cc(=O)o1 [Compound 92]
A549; A549, 72 h, 72 hours treatment
  GI50: 1550 nM
HT29; [1]
  GI50: 1280 nM
MDA-MB-231; [2]
  GI50: 953 nM
PSN-1; PSN1, 72 h, 72 hours treatment
  GI50: 953 nM

## CCC[C@@H](NC(=O)[C@@H]1CSC(/C(C)=N/O)=N1)c1cc(OCC2CC2)cc(=O)o1 [Compound 178]
A549; A549, 72 h, 72 hours treatment
  GI50: 41.7 nM
HT29; [1]
  GI50: 76.1 nM
MDA-MB-231; [2]
  GI50: 49.1 nM
PSN-1; PSN1, 72 h, 72 hours treatment
  GI50: 36.8 nM

## CCC[C@@H](NC(=O)[C@]1(C)CSC(/C(C)=N/O[Si](c2ccccc2)(c2ccccc2)C(C)(C)C)=N1)c1cc(OCC2CC2)cc(=O)o1 [Compound 183]
A549; A549, 72 hours treatment
  GI50: 5.76 nM
HT29; HT-29, 72 hours treatment
  GI50: 5.46 nM
MDA-MB-231; MDA-MB-231, 72 hours treatment
  GI50: 5 nM
PSN-1; PSN1, 72 hours treatment
  GI50: 8.18 nM

## CCC[C@@H](NC(=O)[C@]1(C)CSC(/C(C)=N/OC)=N1)c1cc(OC)cc(=O)o1 [Compound 2]
A549; A549, 72 h, 72 hours treatment
  GI50: 253 nM
HT29; [1]
  GI50: 212 nM
MDA-MB-231; [2]
  GI50: 430 nM
PSN-1; PSN1, 72 h, 72 hours treatment
  GI50: 329 nM

## CCC[C@@H](NC(=O)[C@]1(C)CSC(C(C)=O)=N1)c1cccc(=O)o1 [Compound 127]
A549; A549, 72 h, 72 hours treatment
  GI50: > 29700 nM
HT29; [1]
  GI50: 14000 nM
MDA-MB-231; [2]
  GI50: 8620 nM
PSN-1; PSN1, 72 h, 72 hours treatment
  GI50: 18700 nM

## CCC[C@@H](NC(=O)[C@]1(C)CSC(/C(C)=N/OCCOCCOCCOCC)=N1)c1cc(OCC2CC2)cc(=O)o1 [Compound 145]
A549; A549, 72 h, 72 hours treatment
  GI50: 48.1 nM
HT29; [1]
  GI50: 61.9 nM
MDA-MB-231; [2]
  GI50: 122 nM
PSN-1; PSN1, 72 h, 72 hours treatment
  GI50: 112 nM

## CCC[C@@H](NC(=O)[C@]1(C)CSC(/C(C)=N/O)=N1)c1cc(N(CC)CC)cc(=O)o1 [Compound 77]
A549; A549, 72 h, 72 hours treatment
  GI50: 2150 nM
HT29; [1]
  GI50: 1180 nM
MDA-MB-231; [2]
  GI50: 1960 nM
PSN-1; PSN1, 72 h, 72 hours treatment
  GI50: 2370 nM
